Paper PMC5820243, “Two inhibitors of yeast plasma membrane ATPase 1 (ScPma1p): toward the development of novel antifungal therapies” (Journal of Cheminformatics, 2018)

Biological target: T1, ScPma1p (yeast plasma membrane ATPase 1) (Saccharomyces cerevisiae, UniProt P05030)
T1 construct: gene PMA1
Test: cell-free vesicle-based ATP hydrolysis assay (ScPma1p-overexpressing vesicles, phosphate release)
Type: biochemical

T1 sequence (P05030 whole entry): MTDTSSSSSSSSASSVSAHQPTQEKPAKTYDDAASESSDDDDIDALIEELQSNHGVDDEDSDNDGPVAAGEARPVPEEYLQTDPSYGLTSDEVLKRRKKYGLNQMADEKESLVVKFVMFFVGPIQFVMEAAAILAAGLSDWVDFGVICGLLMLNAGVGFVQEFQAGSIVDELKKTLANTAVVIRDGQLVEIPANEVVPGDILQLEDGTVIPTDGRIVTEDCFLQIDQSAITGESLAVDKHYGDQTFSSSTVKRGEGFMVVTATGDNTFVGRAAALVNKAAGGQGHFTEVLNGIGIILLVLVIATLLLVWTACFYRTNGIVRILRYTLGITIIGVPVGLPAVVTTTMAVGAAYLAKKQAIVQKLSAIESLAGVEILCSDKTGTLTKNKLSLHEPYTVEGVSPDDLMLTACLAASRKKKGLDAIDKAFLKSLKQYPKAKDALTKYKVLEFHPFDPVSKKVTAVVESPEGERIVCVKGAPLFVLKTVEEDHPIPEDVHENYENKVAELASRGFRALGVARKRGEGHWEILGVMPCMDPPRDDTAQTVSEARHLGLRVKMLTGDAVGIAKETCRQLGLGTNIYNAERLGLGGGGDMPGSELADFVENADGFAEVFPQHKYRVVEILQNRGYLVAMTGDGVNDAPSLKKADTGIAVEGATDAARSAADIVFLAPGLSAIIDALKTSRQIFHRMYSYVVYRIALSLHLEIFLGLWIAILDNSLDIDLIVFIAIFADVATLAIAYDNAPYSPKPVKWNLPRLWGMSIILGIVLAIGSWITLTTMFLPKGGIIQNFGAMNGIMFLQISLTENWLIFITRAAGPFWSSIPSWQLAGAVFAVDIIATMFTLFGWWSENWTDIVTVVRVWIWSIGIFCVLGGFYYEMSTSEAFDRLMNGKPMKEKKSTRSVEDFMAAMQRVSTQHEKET

- IC50: 4.4 µM
Structure (SMILES): Cn1ncc2c(Nc3cccc(Cl)c3)nc(Nc3cccc(Cl)c3)nc21 [NSC11668, 4-N,6-N-bis(3-chlorophenyl)-1-methylpyrazolo[3,4-d]pyrimidine-4,6-diamine]
